Columns and labels:
[1] = target: T1, Prostaglandin E2 receptor EP1 subtype (Homo sapiens, UniProt P34995); assay: Antagonist activity at human EP1 expressed in CHO cells coexpressing G16-alpha assessed as intracellular calcium flux preincubated for 15 mins followed by addition of PGE2 by calcium flux assay; type: functional, cell-based
T1 sequence (P34995 whole entry): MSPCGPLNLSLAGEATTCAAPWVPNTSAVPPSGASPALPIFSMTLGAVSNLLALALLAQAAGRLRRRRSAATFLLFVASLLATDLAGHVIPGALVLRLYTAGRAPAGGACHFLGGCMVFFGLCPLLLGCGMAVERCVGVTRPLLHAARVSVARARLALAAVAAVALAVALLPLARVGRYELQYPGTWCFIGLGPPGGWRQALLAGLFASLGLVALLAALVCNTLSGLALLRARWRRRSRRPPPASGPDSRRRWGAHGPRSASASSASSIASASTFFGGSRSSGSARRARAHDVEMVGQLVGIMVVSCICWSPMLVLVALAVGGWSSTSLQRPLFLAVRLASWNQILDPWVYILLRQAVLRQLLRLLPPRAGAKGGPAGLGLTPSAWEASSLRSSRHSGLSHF

[2] = Volume of distribution at steady state in BALB/c mouse at 1 mg/kg, iv measured upto 24 hrs by LC-MS/MS analysis; details: in vivo
[3] = target: T2, Prostaglandin E2 receptor EP4 subtype (Homo sapiens, UniProt P35408); assay: Inhibition of human EP4 transfected in human HEK293 cells co transfected with CRE-luciferase assessed as reduction in PGE2-induced luciferase expression incubated for 24 hrs by luciferase reporter gene Assay
CYP2E1 = CYP2E1 (Homo sapiens, UniProt P05181); assay: Inhibition of CYP2E1 in human liver microsomes at 20 uM using chlorzoxazone as substrate incubated for 60 mins by HPLC analysis relative to control; type: ADME; details: probe chlorzoxazone
[4] = target: T2, Prostaglandin E2 receptor EP4 subtype; assay: Inhibition of human EP4 transfected in human HEK293 cells co transfected with SmBit-beta-arrestin. assessed as reduction in PGE2 induced-beta-arrestin recruitment by NanoBiT beta-arrestin recruitment assay
in vivo = details: BALB/c, mouse, po, 5 mg/kg
Description: Cmax in BALB/c mouse at 5 mg/kg, po measured upto 24 hrs by LC-MS/MS analysis

[5] = Apparent volume of distribution in BALB/c mouse at 1 mg/kg, iv measured upto 24 hrs by LC-MS/MS analysis; details: in vivo
CYP2D6 = CYP2D6 (Homo sapiens, UniProt P10635); assay: Inhibition of CYP2D6 in human liver microsomes at 20 uM using dextromethorphan as substrate incubated for 60 mins by HPLC analysis relative to control; type: ADME; details: probe dextromethorphan
Sequence of CYP2D6 (P10635 whole entry): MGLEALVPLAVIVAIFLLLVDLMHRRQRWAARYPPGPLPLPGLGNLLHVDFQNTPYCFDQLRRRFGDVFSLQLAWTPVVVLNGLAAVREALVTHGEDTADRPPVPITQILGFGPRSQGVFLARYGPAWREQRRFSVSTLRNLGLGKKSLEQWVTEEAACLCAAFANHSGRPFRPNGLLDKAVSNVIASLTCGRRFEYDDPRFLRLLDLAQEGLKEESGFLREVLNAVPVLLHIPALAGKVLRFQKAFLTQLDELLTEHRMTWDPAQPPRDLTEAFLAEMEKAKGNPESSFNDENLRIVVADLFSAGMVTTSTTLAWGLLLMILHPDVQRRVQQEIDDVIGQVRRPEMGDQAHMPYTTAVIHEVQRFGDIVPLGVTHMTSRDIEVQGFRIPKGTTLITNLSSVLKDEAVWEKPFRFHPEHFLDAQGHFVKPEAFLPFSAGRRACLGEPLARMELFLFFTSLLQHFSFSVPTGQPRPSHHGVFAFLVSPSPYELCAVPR

T2 sequence (P35408 whole entry): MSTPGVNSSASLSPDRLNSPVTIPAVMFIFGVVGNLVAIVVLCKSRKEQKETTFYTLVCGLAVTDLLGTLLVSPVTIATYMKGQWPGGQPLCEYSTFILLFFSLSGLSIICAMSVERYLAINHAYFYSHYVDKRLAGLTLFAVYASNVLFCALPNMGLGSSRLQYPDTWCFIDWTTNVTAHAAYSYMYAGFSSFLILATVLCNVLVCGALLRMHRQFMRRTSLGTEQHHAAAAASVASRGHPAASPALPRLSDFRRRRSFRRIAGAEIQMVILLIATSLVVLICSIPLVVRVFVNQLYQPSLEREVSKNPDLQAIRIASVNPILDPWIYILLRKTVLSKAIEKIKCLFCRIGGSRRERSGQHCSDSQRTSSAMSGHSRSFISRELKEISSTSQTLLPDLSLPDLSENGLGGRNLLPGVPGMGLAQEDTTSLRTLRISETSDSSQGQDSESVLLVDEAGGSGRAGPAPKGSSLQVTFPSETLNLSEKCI
Sequence of CYP2E1 (P05181 whole entry): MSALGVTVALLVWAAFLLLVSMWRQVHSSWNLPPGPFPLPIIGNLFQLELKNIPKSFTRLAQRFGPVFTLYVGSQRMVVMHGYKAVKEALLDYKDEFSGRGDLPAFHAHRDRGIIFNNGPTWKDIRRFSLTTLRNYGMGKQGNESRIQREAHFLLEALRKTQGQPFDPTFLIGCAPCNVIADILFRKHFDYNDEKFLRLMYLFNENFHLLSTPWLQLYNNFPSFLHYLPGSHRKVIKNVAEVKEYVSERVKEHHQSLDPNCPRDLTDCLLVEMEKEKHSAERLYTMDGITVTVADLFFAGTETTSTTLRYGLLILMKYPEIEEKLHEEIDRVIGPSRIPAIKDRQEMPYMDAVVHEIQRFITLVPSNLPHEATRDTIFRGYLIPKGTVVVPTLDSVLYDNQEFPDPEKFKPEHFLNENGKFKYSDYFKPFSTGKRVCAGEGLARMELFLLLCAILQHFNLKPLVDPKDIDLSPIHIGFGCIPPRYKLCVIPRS

IC50 [1]: > 10000 nM
Vd at 24 h [2]: 4.4 L/kg
IC50 [3]: 5.2 nM
inhibition at 1 h, 20 µM (CYP2E1): 66%
IC50 [4]: 0.4 nM
Cmax at 24 h (in vivo): 194 ng/mL
Vd at 24 h [5]: 10.2 L/kg
inhibition at 1 h, 20 µM (CYP2D6): 23%
Compound: C/C=C/c1nnn(Cc2ccc(C(F)(F)F)cc2)c1C(=O)N[C@@H](C)c1ccc(C(=O)O)cc1

Source: ChEMBL document CHEMBL4376865, “Discovery and Characterization of 1H-1,2,3-Triazole Derivatives as Novel Prostanoid EP4 Receptor Antagonists for Cancer Immunotherapy” (J Med Chem, 2020)
